Measurements published in PubChem BioAssay AID256 (DTP/NCI, 2004).
Values joined by “and” are separate entries in the source; they are usually repeats but may differ in a detail not shown here. Equal values may be shown once. Toxic doses and inconclusive results are not listed. How the source made its calls: active means survival T/C of 150% or more; inactive means T/C below 125% in these data.

Tested on: CD2F1 mice, L1210 leukemia ip, survival T/C
Test: NCI In Vivo Anticancer Drug Screen. Data for tumor model L1210 Leukemia (intraperitoneal) in CD2F1 (CDF1) mice
Conditions: higher = longer survival
Outline: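 Implant tumor; dose compound or vehicle; measure endpoint in both groups; report treated divided by control.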

Measured: T/C

[Cl][Pt+2][Cl].[NH-]c1ccc(C(=O)c2ccccc2)cc1[NH-]
inactive: endpoint: mean survival time, dose: 2.5 mg/kg/injection, schedule: Q01DX009 (ip), vehicle: saline with Tween-80 105 % of control | endpoint: mean survival time, dose: 5.0 mg/kg/injection, schedule: Q01DX009 (ip), vehicle: saline with Tween-80 105 % of control | endpoint: mean survival time, dose: 10.0 mg/kg/injection, schedule: Q01DX009 (ip), vehicle: saline with Tween-80 106 % of control | endpoint: mean survival time, dose: 20.0 mg/kg/injection, schedule: Q01DX009 (ip), vehicle: saline with Tween-80 100 % of control and 106 % of control | endpoint: mean survival time, dose: 40.0 mg/kg/injection, schedule: Q01DX009 (ip), vehicle: saline with Tween-80 102 % of control and 105 % of control | endpoint: mean survival time, dose: 80.0 mg/kg/injection, schedule: Q01DX009 (ip), vehicle: saline with Tween-80 101 % of control | endpoint: mean survival time, dose: 160.0 mg/kg/injection, schedule: Q01DX009 (ip), vehicle: saline with Tween-80 100 % of control | endpoint: mean survival time, dose: 320.0 mg/kg/injection, schedule: Q01DX009 (ip), vehicle: saline with Tween-80 100 % of control

O=c1cc(Cl)ncn1C1OC(CO)C(O)C1O (stereo not drawn)
inactive: endpoint: median survival time, dose: 12.5 mg/kg/injection, schedule: Q01DX005 (ip), vehicle: saline 108 % of control | endpoint: median survival time, dose: 25.0 mg/kg/injection, schedule: Q01DX005 (ip), vehicle: saline 104 % of control | endpoint: median survival time, dose: 50.0 mg/kg/injection, schedule: Q01DX005 (ip), vehicle: saline 95 % of control | endpoint: median survival time, dose: 100.0 mg/kg/injection, schedule: Q01DX005 (ip), vehicle: saline 97 % of control | endpoint: median survival time, dose: 200.0 mg/kg/injection, schedule: Q01DX005 (ip), vehicle: saline 97 % of control

COc1ccc(C=C2C(=O)C=CC2=O)cc1OC
inactive: endpoint: mean survival time, dose: 5.0 mg/kg/injection, schedule: Q04DX002 (ip), vehicle: saline with Tween-80 103 % of control | endpoint: mean survival time, dose: 10.0 mg/kg/injection, schedule: Q04DX002 (ip), vehicle: saline with Tween-80 103 % of control

CCOc1cccc(Cc2cn(Cc3ccccc3)c(=O)[nH]c2=O)c1
inactive: endpoint: mean survival time, dose: 100.0 mg/kg/injection, schedule: Q04DX003 (ip), vehicle: saline with Tween-80 100 % of control | endpoint: mean survival time, dose: 200.0 mg/kg/injection, schedule: Q04DX003 (ip), vehicle: saline with Tween-80 106 % of control | endpoint: mean survival time, dose: 400.0 mg/kg/injection, schedule: Q04DX003 (ip), vehicle: saline with Tween-80 96 % of control
